Measured values: BindingDB's records for doi:10.1021/acschembio.6b00012 (Broad Institute, 2016)

Experiments:
Experiment in all cases: HDAC Enzymatic Assay
Conditions in all cases: pH 7.4
[1] = target: Histone deacetylase 1 (Homo sapiens, UniProt Q13547)
Method: (§1) Briefly, this fluorogenic assays uses an acetylated lysine tripeptide substrate, amide-linked to a fluorescently quenched aminocoumarin (AMC). Enzyme reactions were run in 50 mM HEPES, 100 mM KCl, 0.001% (v/v) Tween-20, 0.05% (w/v) BSA, pH 7.4. The appropriate substrate concentration for each HDAC was determined using their corresponding Km values. Km values were determined by monitoring the increase of fluorescence of each HDAC at varying substrate concentrations. The increase in fluorescence units was plotted versus substrate concentration. Assays corresponding to HDACs 4, 5, 7, 8, 9 involved a trifluoroacetylated lysine substrate as described in Bradner et al, while HDACs 1, 2, 3, and 6 used an acetyl-Leu-Gly-acetyl-Lys tripeptide as the substrate. Reactions were carriedout in 384-well plates and fluorescence was measured using a multi-label plate reader and plate stacker (Envision, Perkin-Elmer).

[2] = target: Histone deacetylase 3 (Homo sapiens, UniProt O15379)
Chain of Histone deacetylase 3 (O15379 whole entry): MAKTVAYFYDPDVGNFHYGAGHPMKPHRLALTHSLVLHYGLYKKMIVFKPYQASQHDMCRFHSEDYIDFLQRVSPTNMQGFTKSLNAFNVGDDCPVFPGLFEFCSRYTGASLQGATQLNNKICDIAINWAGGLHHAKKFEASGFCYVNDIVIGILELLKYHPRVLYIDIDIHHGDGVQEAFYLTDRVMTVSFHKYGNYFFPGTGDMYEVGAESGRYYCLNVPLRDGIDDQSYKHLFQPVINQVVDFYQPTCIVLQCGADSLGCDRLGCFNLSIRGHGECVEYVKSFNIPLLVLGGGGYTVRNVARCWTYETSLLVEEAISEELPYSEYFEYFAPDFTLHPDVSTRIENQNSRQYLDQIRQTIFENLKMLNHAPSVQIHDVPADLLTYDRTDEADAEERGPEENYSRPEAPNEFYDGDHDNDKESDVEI
Method: as §1

[3] = target: T1, Histone deacetylase 7 (Homo sapiens, UniProt Q8WUI4)
T1 sequence (Q8WUI4 whole entry): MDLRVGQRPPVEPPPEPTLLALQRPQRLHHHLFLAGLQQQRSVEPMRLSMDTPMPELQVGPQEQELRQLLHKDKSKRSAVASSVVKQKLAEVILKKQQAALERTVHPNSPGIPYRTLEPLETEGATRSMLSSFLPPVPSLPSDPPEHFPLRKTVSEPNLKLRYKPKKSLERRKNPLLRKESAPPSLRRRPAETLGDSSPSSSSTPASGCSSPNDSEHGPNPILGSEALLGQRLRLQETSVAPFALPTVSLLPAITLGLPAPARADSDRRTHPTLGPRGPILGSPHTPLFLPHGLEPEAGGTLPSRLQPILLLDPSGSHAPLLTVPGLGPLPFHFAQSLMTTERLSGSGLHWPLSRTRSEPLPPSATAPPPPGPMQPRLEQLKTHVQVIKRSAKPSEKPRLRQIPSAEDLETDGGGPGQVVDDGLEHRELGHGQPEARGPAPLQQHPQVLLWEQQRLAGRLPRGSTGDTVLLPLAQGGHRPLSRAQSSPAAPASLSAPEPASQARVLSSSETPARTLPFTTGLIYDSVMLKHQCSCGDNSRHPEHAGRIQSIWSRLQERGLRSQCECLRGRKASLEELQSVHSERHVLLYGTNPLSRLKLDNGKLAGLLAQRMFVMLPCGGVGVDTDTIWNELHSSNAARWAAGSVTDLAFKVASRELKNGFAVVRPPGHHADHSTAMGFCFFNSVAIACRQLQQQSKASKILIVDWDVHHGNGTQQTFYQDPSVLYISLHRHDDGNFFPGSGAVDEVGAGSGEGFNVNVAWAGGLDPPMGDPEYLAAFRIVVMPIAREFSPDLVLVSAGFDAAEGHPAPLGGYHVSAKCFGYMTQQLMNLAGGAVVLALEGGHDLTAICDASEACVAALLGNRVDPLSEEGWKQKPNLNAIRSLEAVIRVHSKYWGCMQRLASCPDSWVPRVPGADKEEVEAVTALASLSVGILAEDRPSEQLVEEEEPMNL
Method: as §1

[4] = target: Histone deacetylase 8 [R223M] (Homo sapiens, UniProt Q9BY41, R223M)
Chain of Histone deacetylase 8 [R223M] (Q9BY41 whole entry R223W): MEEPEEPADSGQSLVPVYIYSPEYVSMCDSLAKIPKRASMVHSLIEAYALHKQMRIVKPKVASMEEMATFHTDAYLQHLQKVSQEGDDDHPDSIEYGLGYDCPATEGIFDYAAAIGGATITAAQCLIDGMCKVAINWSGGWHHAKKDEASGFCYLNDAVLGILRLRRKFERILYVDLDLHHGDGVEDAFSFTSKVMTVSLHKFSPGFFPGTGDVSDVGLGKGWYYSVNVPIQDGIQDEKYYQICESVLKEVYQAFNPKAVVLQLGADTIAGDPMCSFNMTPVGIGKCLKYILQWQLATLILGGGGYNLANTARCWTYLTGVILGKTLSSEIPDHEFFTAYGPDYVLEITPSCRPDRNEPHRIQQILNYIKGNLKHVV
Method: as §1

[5] = target: Histone deacetylase 2 (Homo sapiens, UniProt Q92769)
Chain of Histone deacetylase 2 (Q92769 whole entry): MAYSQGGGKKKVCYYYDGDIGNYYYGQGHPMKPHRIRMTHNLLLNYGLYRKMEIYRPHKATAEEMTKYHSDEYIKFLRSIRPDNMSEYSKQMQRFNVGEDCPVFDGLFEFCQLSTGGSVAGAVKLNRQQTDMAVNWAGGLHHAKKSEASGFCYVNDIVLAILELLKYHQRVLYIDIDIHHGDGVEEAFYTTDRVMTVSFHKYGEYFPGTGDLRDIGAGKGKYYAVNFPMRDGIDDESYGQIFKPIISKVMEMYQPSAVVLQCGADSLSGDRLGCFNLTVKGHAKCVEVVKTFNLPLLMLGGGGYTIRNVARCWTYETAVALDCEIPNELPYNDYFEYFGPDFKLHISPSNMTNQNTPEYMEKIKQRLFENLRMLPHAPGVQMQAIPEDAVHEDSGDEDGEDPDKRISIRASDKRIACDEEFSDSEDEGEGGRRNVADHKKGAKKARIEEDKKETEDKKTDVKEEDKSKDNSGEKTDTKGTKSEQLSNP
Method: as §1

[6] = target: Histone deacetylase 5 (Homo sapiens, UniProt Q9UQL6)
Chain of Histone deacetylase 5 (Q9UQL6 whole entry): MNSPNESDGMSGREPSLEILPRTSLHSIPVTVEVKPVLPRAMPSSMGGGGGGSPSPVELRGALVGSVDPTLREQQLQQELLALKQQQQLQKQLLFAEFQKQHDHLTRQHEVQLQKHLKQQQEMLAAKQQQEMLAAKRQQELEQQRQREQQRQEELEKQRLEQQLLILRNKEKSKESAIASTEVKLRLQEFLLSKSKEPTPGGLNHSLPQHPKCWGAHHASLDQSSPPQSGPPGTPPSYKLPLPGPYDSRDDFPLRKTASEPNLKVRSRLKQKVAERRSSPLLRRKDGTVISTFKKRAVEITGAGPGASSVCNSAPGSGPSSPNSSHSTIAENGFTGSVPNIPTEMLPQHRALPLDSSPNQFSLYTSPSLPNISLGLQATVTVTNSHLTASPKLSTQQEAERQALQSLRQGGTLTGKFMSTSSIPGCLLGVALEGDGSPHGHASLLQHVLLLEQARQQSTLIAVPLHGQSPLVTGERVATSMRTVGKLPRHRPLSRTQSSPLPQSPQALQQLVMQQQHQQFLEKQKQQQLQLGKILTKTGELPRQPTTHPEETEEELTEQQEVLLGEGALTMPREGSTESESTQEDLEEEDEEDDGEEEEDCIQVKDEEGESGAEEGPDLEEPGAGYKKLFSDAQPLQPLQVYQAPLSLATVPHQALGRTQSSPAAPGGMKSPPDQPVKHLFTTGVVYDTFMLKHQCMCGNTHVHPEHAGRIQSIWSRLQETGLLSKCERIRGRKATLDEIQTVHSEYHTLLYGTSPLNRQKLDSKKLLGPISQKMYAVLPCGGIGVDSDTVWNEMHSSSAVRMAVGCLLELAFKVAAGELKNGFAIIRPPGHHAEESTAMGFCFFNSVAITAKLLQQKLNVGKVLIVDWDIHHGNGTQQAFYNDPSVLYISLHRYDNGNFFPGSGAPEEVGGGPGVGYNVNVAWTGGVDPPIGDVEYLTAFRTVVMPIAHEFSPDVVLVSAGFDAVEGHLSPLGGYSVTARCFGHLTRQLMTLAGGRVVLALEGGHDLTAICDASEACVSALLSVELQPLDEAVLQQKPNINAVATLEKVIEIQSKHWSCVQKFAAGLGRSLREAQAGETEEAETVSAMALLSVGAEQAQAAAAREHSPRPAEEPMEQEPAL
Method: as §1

[7] = target: Histone deacetylase 9 (Homo sapiens, UniProt Q9UKV0)
Chain of Histone deacetylase 9 (Q9UKV0 whole entry): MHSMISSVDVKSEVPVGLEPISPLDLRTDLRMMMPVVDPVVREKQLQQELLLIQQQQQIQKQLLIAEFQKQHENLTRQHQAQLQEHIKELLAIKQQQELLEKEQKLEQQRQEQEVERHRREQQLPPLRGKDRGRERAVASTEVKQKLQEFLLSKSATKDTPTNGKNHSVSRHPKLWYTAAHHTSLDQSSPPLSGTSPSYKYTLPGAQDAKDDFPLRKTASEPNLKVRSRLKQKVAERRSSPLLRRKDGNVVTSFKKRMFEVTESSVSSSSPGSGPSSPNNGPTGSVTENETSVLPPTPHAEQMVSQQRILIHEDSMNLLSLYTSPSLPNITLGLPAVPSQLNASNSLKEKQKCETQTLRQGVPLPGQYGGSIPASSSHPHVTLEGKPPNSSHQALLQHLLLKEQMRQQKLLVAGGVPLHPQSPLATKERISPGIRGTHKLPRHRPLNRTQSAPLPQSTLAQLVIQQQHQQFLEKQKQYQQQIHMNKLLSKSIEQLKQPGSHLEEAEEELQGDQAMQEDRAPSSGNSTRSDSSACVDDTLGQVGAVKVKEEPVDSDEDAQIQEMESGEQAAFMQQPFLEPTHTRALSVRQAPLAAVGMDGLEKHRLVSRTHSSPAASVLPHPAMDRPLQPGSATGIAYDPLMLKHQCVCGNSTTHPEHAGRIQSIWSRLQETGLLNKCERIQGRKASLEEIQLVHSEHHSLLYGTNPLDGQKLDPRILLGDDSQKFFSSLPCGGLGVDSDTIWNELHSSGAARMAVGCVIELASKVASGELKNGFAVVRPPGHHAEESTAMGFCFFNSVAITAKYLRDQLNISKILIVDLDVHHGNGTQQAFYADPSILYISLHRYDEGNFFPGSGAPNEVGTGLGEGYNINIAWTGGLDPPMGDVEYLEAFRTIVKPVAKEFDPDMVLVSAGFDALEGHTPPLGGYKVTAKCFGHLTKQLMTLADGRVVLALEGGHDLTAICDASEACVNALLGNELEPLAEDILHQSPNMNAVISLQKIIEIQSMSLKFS
Method: as §1

[8] = target: Histone deacetylase 4 (Homo sapiens, UniProt P56524)
Chain of Histone deacetylase 4 (P56524 whole entry): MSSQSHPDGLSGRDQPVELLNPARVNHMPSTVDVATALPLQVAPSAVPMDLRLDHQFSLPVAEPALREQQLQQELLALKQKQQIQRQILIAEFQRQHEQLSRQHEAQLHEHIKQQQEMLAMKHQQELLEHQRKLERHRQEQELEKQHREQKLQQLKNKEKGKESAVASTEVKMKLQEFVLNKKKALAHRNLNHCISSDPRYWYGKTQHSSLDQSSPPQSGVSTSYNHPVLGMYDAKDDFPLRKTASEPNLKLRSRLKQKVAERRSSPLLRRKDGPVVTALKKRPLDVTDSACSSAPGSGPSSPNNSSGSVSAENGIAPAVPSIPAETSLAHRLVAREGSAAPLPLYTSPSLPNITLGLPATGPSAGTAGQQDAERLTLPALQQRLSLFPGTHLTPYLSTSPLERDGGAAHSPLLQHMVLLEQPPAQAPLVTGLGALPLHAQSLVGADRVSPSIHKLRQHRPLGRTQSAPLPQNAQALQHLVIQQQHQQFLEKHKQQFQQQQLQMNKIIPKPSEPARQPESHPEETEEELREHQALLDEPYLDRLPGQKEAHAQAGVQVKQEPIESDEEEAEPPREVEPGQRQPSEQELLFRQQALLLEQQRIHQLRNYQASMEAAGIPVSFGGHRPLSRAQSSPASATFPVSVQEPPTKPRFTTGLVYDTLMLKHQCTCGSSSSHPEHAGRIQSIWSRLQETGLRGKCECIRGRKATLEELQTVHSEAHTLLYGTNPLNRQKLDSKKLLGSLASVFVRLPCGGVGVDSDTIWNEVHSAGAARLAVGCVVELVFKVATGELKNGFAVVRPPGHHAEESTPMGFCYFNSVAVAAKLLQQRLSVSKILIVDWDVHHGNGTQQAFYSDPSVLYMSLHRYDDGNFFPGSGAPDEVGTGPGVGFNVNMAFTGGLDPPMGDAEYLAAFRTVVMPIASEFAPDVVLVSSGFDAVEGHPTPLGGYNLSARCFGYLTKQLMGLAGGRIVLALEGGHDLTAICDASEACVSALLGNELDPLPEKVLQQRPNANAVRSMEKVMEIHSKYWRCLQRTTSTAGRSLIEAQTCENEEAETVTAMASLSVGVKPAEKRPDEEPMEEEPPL
Method: as §1

Chain of Histone deacetylase 1 (Q13547 whole entry): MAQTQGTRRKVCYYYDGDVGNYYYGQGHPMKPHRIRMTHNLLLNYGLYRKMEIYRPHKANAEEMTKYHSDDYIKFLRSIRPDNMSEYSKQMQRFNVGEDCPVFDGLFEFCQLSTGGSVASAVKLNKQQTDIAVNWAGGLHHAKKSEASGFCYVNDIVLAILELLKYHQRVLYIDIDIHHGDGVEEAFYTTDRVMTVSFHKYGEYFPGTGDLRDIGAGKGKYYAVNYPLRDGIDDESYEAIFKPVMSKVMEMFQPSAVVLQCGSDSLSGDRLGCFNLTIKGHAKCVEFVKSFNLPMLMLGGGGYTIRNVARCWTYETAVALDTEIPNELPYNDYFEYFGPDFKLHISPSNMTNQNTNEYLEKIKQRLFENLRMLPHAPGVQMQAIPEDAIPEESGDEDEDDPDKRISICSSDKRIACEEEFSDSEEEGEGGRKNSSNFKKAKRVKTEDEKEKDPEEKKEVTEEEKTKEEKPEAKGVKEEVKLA

## CCN1CCN(C(c2cccnc2)c2cc(Cl)c3cccnc3c2O)CC1 (stereo not drawn) [5-chloranyl-7-[(4-ethylpiperazin-1-yl)-pyridin-3-yl-methyl]quinolin-8-ol]
[1]
  IC50: 40.4 µM
[2]
  IC50: 65.1 µM
[3]
  IC50: 8.44 µM
[4]
  IC50: 3.89 µM
[5]
  IC50: 67.2 µM
[6]
  IC50: 0.85 µM
[7]
  IC50: 1.88 µM
[8]
  IC50: 13.8 µM
